# Experimental data reported in publication PMC6259751, “Investigating Spectrum of Biological Activity of 4- and 5-Chloro-2-hydroxy-N-[2-(arylamino)-1-alkyl-2-oxoethyl]benzamides” (Molecules, 2011).
# Several values for one entry are separate records, joined by “and”; a condition that tells them apart may be missing. Equal entries are not always repeated. Where two headings read alike, the source gives them in different places.
# Columns and labels:
# [1] = test system: Enterococcus sp. J 14365/08; assay: In vitro antibacterial susceptibility testing (broth microdilution); conditions: read-out: MIC EF
# [2] = test system: methicilin resistant Staphylococcus aureus H 5996/08; assay: as above
# [3] = test system: Mycobacterium kansasii MK CNCTC My 235/80; assay: In vitro antimycobacterial evaluation; type: cell-based; conditions: IC90 value
# Candida tropicalis 156 = assay: In vitro antifungal susceptibility testing (broth microdilution); type: cell-based; conditions: M27-A2 for yeasts, IC80 value
# [4] = test system: Trichophyton mentagrophytes 445; assay: as above; type: cell-based
# [5] = test system: Staphylococcus epidermidis H 6966/08; assay: In vitro antibacterial susceptibility testing (broth microdilution)
# [6] = test system: photosynthetic electron transport (PET) in spinach chloroplasts; assay: Inhibition of photosynthetic electron transport (PET) in spinach chloroplasts; type: biochemical, Spinacia oleracea L.; conditions: DCPIP photoreduction
# Protocol: Chloroplasts were prepared from spinach (Spinacia oleracea L.) according to Masarovicova and Kralova. The inhibition of photosynthetic electron transport (PET) in spinach chloroplasts was determined spectrophotometrically (Genesys 6, Thermo Scientific, USA), using an artificial electron acceptor 2,6-dichlorophenol-indophenol (DCIPP) according to Kralova et al., and the rate of photosynthetic electron transport was monitored as a photoreduction of DCPIP. The measurements were carried out in phosphate buffer (0.02 mol/L, pH 7.2) containing sucrose (0.4 mol/L), MgCl2 (0.005 mol/L) and NaCl (0.015 mol/L). The chlorophyll content was 30 mg/L in these experiments and the samples were irradiated (~100 W/m^2) from 10 cm distance with a halogen lamp (250 W) using a 4 cm water filter to prevent warming of the samples. The studied compounds were dissolved in DMSO due to their limited water solubility. […] The inhibitory efficiency of the studied compounds was expressed by IC50 values, i.e. by molar concentration of the compounds causing 50% decrease in the oxygen evolution rate relative to the untreated control.
# [7] = test system: Staphylococcus aureus CCM 4516/08; assay: In vitro antibacterial susceptibility testing (broth microdilution); conditions: read-out: MIC SA
# [8] = test system: Mycobacterium avium MA CNCTC My 330/88; assay: In vitro antimycobacterial evaluation; type: cell-based; conditions: IC90 value
# [9] = test system: Mycobacterium tuberculosis MTB CNCTC My 331/88; assay: In vitro antimycobacterial evaluation; type: cell-based; conditions: IC90 value
# [10] = Lipophilicity determination by RP-HPLC (capacity factor k / log k); type: physicochemical; conditions: C18 column, MeOH 70% / H2O 30%, isocratic
# Protocol: Hydrophobicities (log P/Clog P) of compounds 8 and 9 were calculated using two commercially available programs (ChemOffice Ultra 10.0 and ACD/LogP) and measured by means of RP-HPLC determination of capacity factors k with subsequent calculation of log k. The procedure was performed under isocratic conditions with methanol as an organic modifier in the mobile phase using an end-capped non-polar C18 stationary RP column. The results are shown in Table 1 and illustrated in Figure 1.
# A Waters Alliance 2695 XE HPLC separation module and a Waters Photodiode Array Detector 2996 (Waters Corp., Milford, MA, USA) were used. A Symmetry® C18 5 μm, 4.6 × 250 mm, Part No. WAT054275 (Waters Corp., Milford, MA, USA) chromatographic column was used. The HPLC separation process was monitored by Empower™ 2 Chromatography Data Software, Waters 2009 (Waters Corp., Milford, MA, USA). A mixture of MeOH p.a. (70%) and H2O-HPLC – Mili-Q Grade (30%) was used as a mobile phase. The total flow of the column was 1.0 mL/min, injection volume, 30 μL, column temperature, 30 °C and sample temperature, 10 °C. The detection wavelength of 210 nm was chosen. The KI methanolic solution was used for the dead time (tD) determination. Retention times (tR) were measured in minutes. The capacity factors k were calculated using the Empower™ 2 Chromatography Data Software according to formula k = (tR - tD)/tD, where tR is the retention time of the solute, whereas tD denotes the dead time obtained using an unretained analyte. Log k, calculated from the capacity factor k, is used as the lipophilicity index converted to log P scale.
# [11] = 72h, M38-A for moulds, IC50 value, read-out: MIC TM
# [12] = 120h, M38-A for moulds, IC50 value, read-out: MIC TM
# [13] = H6966/08, 24 h, read-out: MIC SE
# [14] = H6966/08, 48 h, read-out: MIC SE
Structure (SMILES),"MIC ([1]; SP.J14365/08, 24 h) [µM]","MIC ([1]; SP.J14365/08, 48 h) [µM]","MIC ([2]; MRSA, 24 h, read-out: MIC MRSA) [µM]","MIC ([2]; MRSA, 48 h, read-out: MIC MRSA) [µM]",MIC ([3]; 14h) [µM],MIC ([3]; 21h) [µM],MIC (Candida tropicalis 156; 24h) [µM],MIC (Candida tropicalis 156; 48h) [µM],"MIC [4, 11] [µM]","MIC [4, 12] [µM]","MIC [5, 13] [µM]","MIC [5, 14] [µM]",IC50 [6] [µM],"MIC ([7]; CCM4516, 24 h) [µM]","MIC ([7]; CCM4516, 48 h) [µM]",MIC ([8]; 14h) [µM],MIC ([8]; 21h) [µM],MIC ([9]; 14h) [µM],MIC ([9]; 21h) [µM],log k [10],other results
CC(C)[C@@H](NC(=O)c1cc(Cl)ccc1O)C(=O)Nc1cccc(Cl)c1 [8e],62.5,250,31.2,31.2,62.5,125,15.6,62.5,125,125,31.2,31.2,20.4,15.6,15.6,62.5,125,32,62.5,0.61 and 0.6114,
Cc1ccc(NC(=O)[C@@H](NC(=O)c2ccc(Cl)cc2O)C(C)C)cc1 [9i],,,,,,,,,,,,,37.3,,,,,,,0.5902,
O=C(N[C@@H](Cc1ccccc1)C(=O)Nc1ccc(Cl)cc1)c1cc(Cl)ccc1O [8k],> 500,> 500,> 500,> 500,32,62.5,125,> 125,125,> 125,> 500,> 500,29.8,> 500,> 500,32,32,16,16,0.7394,
CC(C)[C@@H](NC(=O)c1ccc(Cl)cc1O)C(=O)Nc1ccc(Br)cc1 [9g],,,,,,,,,,,,,24,,,,,,,0.7353,
CC(C)[C@H](NC(=O)c1ccc(Cl)cc1O)C(=O)Nc1ccc(C(F)(F)F)cc1 [9h],,,,,,,,,,,,,14.2,,,,,,,0.7892,
COc1ccc(NC(=O)[C@@H](NC(=O)c2ccc(Cl)cc2O)C(C)C)cc1 [9j],,,,,,,,,,,,,35.7,,,,,,,0.3623,
O=C(CNC(=O)c1cc(Cl)ccc1O)Nc1cccc(Cl)c1 [8a],> 250,> 250,> 250,> 250,250,250,125,125,125,125,> 250,> 250,379,> 250,> 250,62.5,62.5,125,125,0.2439,
O=C(N[C@@H](Cc1ccccc1)C(=O)Nc1ccc(Br)cc1)c1cc(Cl)ccc1O [8u],> 125,> 125,> 125,> 125,62.5,125,500,> 500,500,> 500,> 125,> 125,31.2,> 125,> 125,250,250,32,32,0.7779,
CC(C)[C@H](NC(=O)c1cc(Cl)ccc1O)C(=O)Nc1ccc(Br)cc1 [8s],> 125,> 125,> 125,> 125,62.5,125,> 125,> 125,> 125,> 125,> 125,> 125,26.2,> 125,> 125,62.5,62.5,62.5,62.5,0.6709,
"O=C(N[C@@H](Cc1ccccc1)C(=O)Nc1cccc(Cl)c1)c1cc(Cl)ccc1O [8f, N-{(1S)-1-benzyl-2-[(3-chlorophenyl)amino]-2-oxoethyl}-5-chloro-2-hydroxybenz-amide]",> 500,> 500,> 500,> 500,62.5,125,31.2,125,125,125,> 500,> 500,12.3,> 500,> 500,125,250,62.5,125,0.70 and 0.7098,
C[C@H](NC(=O)c1ccc(Cl)cc1O)C(=O)Nc1ccc(Cl)cc1 [9a],500,500,500,500,125,125,> 250,> 250,> 250,> 250,250,250,61.5,250,500,125,125,62.5,62.5,0.4934,
CC(C)[C@H](NC(=O)c1cc(Cl)ccc1O)C(=O)Nc1cccc(Cl)c1 [8d],> 125,> 125,> 125,> 125,62.5,125,> 125,> 125,> 125,> 125,> 125,> 125,13.8,> 125,> 125,125,125,32,62.5,0.6124,
"C[C@@H](NC(=O)c1ccc(Cl)cc1O)C(=O)Nc1ccc(Cl)cc1 [9b, 4-Chloro-N-{(1R)-2-[(4-chlorophenyl)-amino]-1-methyl-2-oxoethyl}-2-hydroxy benzamide]",500,500,7.81,7.81,125,125,250,250,250,250,1.95,1.95,,7.81,7.81,125,125,32,62.5,0.4921,"MIC ([2]; read-out: activity against methicillin-resistant Staphylococcus aureus (MIC)): 7.81 µM; MIC ([5]; H6966/08, read-out: activity against S. epidermidis (MIC)): 1.95 µM"
"C[C@@H](NC(=O)c1cc(Cl)ccc1O)C(=O)Nc1cccc(Cl)c1 [8c, 5-chloro-N-{(1R)-2-[(3-chlorophenyl)amino]-1-methyl-2-oxoethyl}-2-hydroxybenzamide]",> 500,> 500,> 500,> 500,62.5,62.5,31.2,125,0.49,0.49,> 500,> 500,,> 500,> 500,125,250,62.5,125,0.41 and 0.4153,"MIC ([4]; conclusions, incubation time not stated, read-out: antifungal activity against Trichophyton mentagrophytes (MIC)): 0.49 µM"
